One may read the IC50 as the point on the concentration scale where inhibition reaches its midpoint. As usually defined, the LD50 is the dose expected to kill half of the subjects tested. A high value points to a less toxic substance.

SMILES strings stand for the structures.

For one data set, the target named is T1, pig pancreas lipase (Sus scrofa, UniProt P00591).
T1 sequence (P00591 1-450): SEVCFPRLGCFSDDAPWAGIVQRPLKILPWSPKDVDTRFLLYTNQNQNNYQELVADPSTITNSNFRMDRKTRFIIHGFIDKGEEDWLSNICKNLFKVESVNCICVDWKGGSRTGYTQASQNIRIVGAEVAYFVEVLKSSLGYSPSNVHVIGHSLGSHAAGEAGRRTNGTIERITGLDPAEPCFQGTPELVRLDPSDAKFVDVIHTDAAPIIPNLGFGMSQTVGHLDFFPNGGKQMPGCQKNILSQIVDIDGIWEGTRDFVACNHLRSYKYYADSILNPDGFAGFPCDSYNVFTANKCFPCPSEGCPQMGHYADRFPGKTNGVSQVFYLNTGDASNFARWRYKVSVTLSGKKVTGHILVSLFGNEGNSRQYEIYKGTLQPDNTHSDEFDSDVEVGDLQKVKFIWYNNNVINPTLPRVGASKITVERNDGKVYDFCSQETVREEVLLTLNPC
Briefly: inhibition of pancreas lipase (titrimetric, oleic acid liberated from triolein). It is filed as biochemical. An excerpt:
The IC50 is that concentration at which the lipase reactivity is inhibited to half of the maximum.

Data set [1] can be described thus: acute toxicity, single oral administration to mice. The conditions noted are these: mouse, in vivo. The procedure:
An emulsion which contains 1 mM taurodeoxycholate, 9 mM taurodeoleate, 0.1 mM cholesterol, 1 mM egg lecithin, 15 mg/ml BSA (i.e., bovine serum albumine), 2 mM Tris-HCl, 100 mM sodium chloride, 1 mM calcium chloride and the substrate triolein is treated with the compound of formula I dissolved in ethanol or dimethyl sulphoxide (10% of the emulsion volume) and the reaction is started by the addition of 100 μl (175 U) of pig pancreas lipase. the pH is held at 8 during the reaction by the addition of sodium hydroxide. The IC50 is calculated from the consumption of sodium hydroxide determined during 10 minutes. The IC50 is that concentration at which the lipase reactivity is inhibited to half of the maximum. Table I hereinafter contains IC50 values determined for the compounds of formula I and data concerning the acute toxicity (LD50 after single oral administration to mice).

For the next data set, the system named is resorption of fats. Briefly: inhibition of the resorption of fats, double-labelling experiment on mice (3H-triolein and 14C-oleic acid excreted with the feces). The settings on record: 40 mg/kg lipstatin, given as preparation containing about 10% lipstatin, test meal. It is filed as in vivo. As to the method: For this purpose, there is administered to the test animals a test meal, which contains ^3 H-triolein and ^14 C-oleic acid, and a compound of formula I. By measuring the radioactivity there is then determined the amount of ^3 H-triolein and ^14 C-oleic acid (in % of the amount administered) excreted with the feces.
*The experiments were carried out with a preparation which contained abou
10% lipstatin. The dosage specified is the amount of lipstatin

As for `CCCCC/C=C\C/C=C\C[C@@H](C[C@@H]1OC(=O)[C@H]1CCCCCC)OC(=O)[C@H](CC(C)C)NC=O` [Lipstatin, (2S,3S,5S,7Z,10Z)-5-[(S)-2-formamido-4-methyl-valeryloxy]-2-hexyl-3-hydroxy-7,10-hexadecadienoic acid lactone], the IC50 at pig pancreas lipase was 142 nM. This molecule showed an LD50 in data set [1] of over 4000 mg/kg. The “Excretion of Triolein in % of the amount administered” value in the data set with resorption of fats (controls 3.5 ± 0.3) is recorded as 56.8 ± 13 % of the amount administered. Further, in the data set with resorption of fats (controls 10.1 ± 0.6), the “Excretion of Oleic acid in % of the amount administered” value is 13.8 ± 5.6 % of the amount administered.

The values above are taken from patent US4598089A, “Leucine derivatives” (Hoffmann-La Roche Inc., priority 1983, dated 1986).
